These results are taken from patent US8148370B2, “Polysubstituted derivatives of 2-aryl-6-phenyl-imidazo[1,2-a]pyridines, and preparation and therapeutic use thereof” (Sanofi-Aventis, priority 2008, dated 2012).

Each structure is given as a SMILES string. pEC50: −log10 of the molar value.

The target in one data set is T1, mouse Nurr1 receptor (Mus musculus, UniProt Q06219).
T1 construct: endogenously expressing the mouse Nurr1 receptor; host or cells: Neuro-2A (N2A) mouse neuroblastoma cells stably transfected with 8NBRE-luciferase
T1 sequence (Q06219 whole entry): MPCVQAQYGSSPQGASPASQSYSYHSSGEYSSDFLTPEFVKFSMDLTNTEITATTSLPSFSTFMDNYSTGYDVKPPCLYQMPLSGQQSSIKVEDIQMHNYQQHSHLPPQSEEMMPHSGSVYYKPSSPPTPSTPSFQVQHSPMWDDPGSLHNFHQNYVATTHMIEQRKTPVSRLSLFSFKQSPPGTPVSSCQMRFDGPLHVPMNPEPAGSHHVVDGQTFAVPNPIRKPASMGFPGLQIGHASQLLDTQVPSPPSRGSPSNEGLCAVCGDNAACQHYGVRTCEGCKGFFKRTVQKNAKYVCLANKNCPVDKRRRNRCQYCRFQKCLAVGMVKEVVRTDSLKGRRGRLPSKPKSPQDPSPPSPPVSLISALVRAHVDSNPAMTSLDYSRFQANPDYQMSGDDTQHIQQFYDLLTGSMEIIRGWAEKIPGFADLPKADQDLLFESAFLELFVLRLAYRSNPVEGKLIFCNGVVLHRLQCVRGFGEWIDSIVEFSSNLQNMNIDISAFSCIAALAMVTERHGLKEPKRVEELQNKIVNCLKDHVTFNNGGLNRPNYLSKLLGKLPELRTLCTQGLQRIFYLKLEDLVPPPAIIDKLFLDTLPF
Nature of the data set: Evaluation of the in vitro activity on N2A cells (NBRE-luciferase reporter). It is filed as cell-based. As to conditions: N2A (Neuro-2A) cells stably transfected with 8NBRE-luciferase; products incubated 24 hours; luminescence. How it is done:
The compounds according to the invention have formed the subject of pharmacological assays which make it possible to determine their modulatory effect on NOT. Evaluation of the In Vitro Activity on N2A Cells The activity of the compounds according to the invention was evaluated on a cell line (N2A) endogenously expressing the mouse Nurr1 receptor and stably transfected with the NOT binding response element (NBRE) coupled to the luciferase reporter gene. The EC50 values are between 0.01 and 10 μM. The assays were carried out according to the procedure described below. The Neuro-2A cell line comes from a standard commercial source (ATCC). The Neuro-2A clone was obtained, from a spontaneous tumour originating from an A albino mouse strain, by R. J Klebe et al. This Neuro-2A line is subsequently stably transfected with 8NBRE-luciferase. The N2A-8NBRE cells are cultured until confluence in 75 cm^2 culture flasks containing DMEM supplemented with 10% of foetal calf serum, 4.5 g/l of glucose and 0.4 mg/ml of geneticin. After a week of culture, the cells are recovered with 0.25% trypsin for 30 seconds and then resuspended in DMEM without phenol red, containing 4.5 g/l of glucose and 10% of Hyclone delipidized serum, and deposited into transparent-bottom 96-well white plates. The cells are deposited at a rate of 60 000 per well in 75 μl for 24 hours before the addition of the products. The products are applied in 25 μl and incubated for a further 24 hours. On the day of the measurement, an equivalent volume (100 μl) of Steadylite is added to each well and then left for a period of 30 minutes in order to obtain complete cell lysis and maximum signal production. The plates are subsequently measured in a luminescence counter for microplates after having been sealed with an adhesive film. The products are prepared in the form of a stock solution at 10^−2M and then diluted in 100% of DMSO. Each product concentration is prediluted in culture medium before incubation with the cells, thus containing 0.625% final concentration of DMSO. […] It is thus apparent that the compounds according to the invention have a modulatory effect on NOT.
(In general: Reporter assays use an easily measured gene product as a stand-in for the process of interest.)
For the molecule `OCc1c(F)ccc(-c2ccc3nc(-c4ccc(Cl)cc4)cn3c2)c1F` [Compound 3, {3-[2-(4-Chlorophenyl)imidazo[1,2-a]pyridin-6-yl]-2,6-difluorophenyl}methanol], the pEC50 (as a rule, −log10 of the EC50, conventionally taken in molar units) is 9.30.
Molecule `COc1cccc(-c2cn3cc(-c4cc(C(C)(C)O)ccc4F)ccc3n2)c1` [Compound 33, 2-{4-Fluoro-3-[2-(3-methoxyphenyl)imidazo[1,2-a]pyridin-6-yl]phenyl}propan-2-ol] had a pEC50 of 7.60.
`OCc1cc(-c2ccc3nc(-c4ccc(Cl)cc4)cn3c2)ccc1F` [Compound 11, {5-[2-(4-Chlorophenyl)imidazo[1,2-a]pyridin-6-yl]-2-fluorophenyl}methanol] had a pEC50 of 8.12.
Molecule `O=[N+]([O-])c1ccc(-c2cn3cc(-c4cccc(F)c4CO)ccc3n2)cc1` [Compound 38, {2-Fluoro-6-[2-(4-nitrophenyl)imidazo[1,2-a]pyridin-6-yl]phenyl}methanol] showed a pEC50 of 6.68.
As to `COc1cccc(-c2cn3cc(-c4ccc(CO)c(F)c4)ccc3n2)c1` [Compound 17, {2-Fluoro-4-[2-(3-methoxyphenyl)imidazo[1,2-a]pyridin-6-yl]phenyl}methanol], the pEC50 was 7.03.
Consider `OCc1c(F)ccc(-c2ccc3nc(-c4cccc(Br)c4)cn3c2)c1F` [Compound 42, {3-[2-(3-Bromophenyl)imidazo[1,2-a]pyridin-6-yl]-2,6-difluorophenyl}methanol], for which the pEC50 was 9.00.
`CC(O)c1ccc(F)c(-c2ccc3nc(-c4ccc(Cl)cc4)cn3c2)c1` (single isomer, unassigned; (+)) [Compound 29, (+)-1-{3-[2-(4-Chlorophenyl)imidazo[1,2-a]pyridin-6-yl]-4-fluorophenyl}ethanol]: the pEC50 was 10.00.
`COCc1c(F)ccc(-c2ccc3nc(-c4ccc(C)cc4)cn3c2)c1F` [Compound 37, 6-(2,4-Difluoro-3-methoxymethylphenyl)-2-(p-tolyl)imidazo[1,2-a]pyridine]: the pEC50 is 7.13.
With `OC1CCCc2ccc(-c3ccc4nc(-c5ccc(Cl)cc5)cn4c3)cc21` (centres unmarked) [Compound 8, 7-[2-(4-Chlorophenyl)imidazo[1,2-a]pyridin-6-yl]-1,2,3,4-tetrahydronaphth-1-ol], the pEC50 was 7.38.

Tested on in the next data set: not given
Assay: not given
Settings: not given
With `CC(O)c1cccc(-c2ccc3nc(-c4ccc(Cl)cc4)cn3c2)c1F` (centres unmarked) [Compound 2, 1-{3-[2-(4-Chlorophenyl)imidazo[1,2-a]pyridin-6-yl]-2-fluorophenyl}ethanol], the melting point – broadly, the temperature of the solid-liquid transition – was 193 to 195 °C.
Still for that read-out and setting: with `OCc1c(F)ccc(-c2ccc3nc(-c4ccc(Cl)cc4)cn3c2)c1F` [Compound 3, {3-[2-(4-Chlorophenyl)imidazo[1,2-a]pyridin-6-yl]-2,6-difluorophenyl}methanol] the figure was 214 to 216 °C.
